Source: patent US7592326B2, “Method for stimulating the immune, inflammatory or neuroprotective response” (priority 2004, dated 2009)

Assays:
ERK = assay: Western blot signaling in human macrophages: ERK; assay type: cell-based
Experimental: (§1) Preparation of macrophages was performed as previously described (Akagawa et al., 1996). Briefly, fully differentiated macrophages from human PBMC were isolated from leukapheresis preparations obtained by the Blood Bank, Clinical Center, National Institutes of Health, Bethesda, Md. The leukocyte-rich preparation was overlaid on Accu-prep in 50 ml tubes and the tubes were centrifuged at 800 × g for 20 min at room temperature. PBMC fractions were collected, washed once with PBS at room temperature and twice with complete medium at 4° C. and resuspended in the same medium. Monocytes were further purified by using iso-osmotic Percoll gradient (Amersham Biosciences). At this stage, the purity of monocytes was higher than 90%. One and half million cells were placed on a 12-well plate in 1.5 ml RPMI1640 containing 50 ng/ml human M-CSF. On day 4, 1 ml of the medium was replaced with 1 ml of fresh medium containing 50 ng human M-CSF. On day 7, non-adherent cells were washed out and adherent cells were used as macrophages.
Western blot analysis of macrophages was performed as previously described (Matsuyama et al., 2003). Briefly, prepared macrophages were starved in RPMI 1640 without FCS for 10 h. Cells were rinsed three times with PBS, and treated with cyclic dinucleotide for various times. Cells were lysed on ice for 20 min in a buffer containing 50 mM NaCl, 20 mM Tris-HCl, 50 mM sodium fluoride, 30 mM Na4P207, 5 mM EGTA, 3 mM sodium orthovanadate, 1% Triton X-100, 1 mg/ml leupeptin, 1 mM PMSF, 1 mg/ml aprotinin, 1 mg/ml pepstatin A and 100 mM sodium orthovanadate pre-treated with H202. The lysates were spun in a microcentrifuge for 20 min and the supernatants were collected. Proteins were analyzed on 12% polyacrylamide gels by SDS-PAGE and transferred electrophoretically to nitrocellulose membranes at 150 mA for 1 h in a semi-dry system. The membranes were incubated with an antibody against either phosphorylated or nonphosphorylated p38 MAP kinase or ERK, followed by an appropriate secondary Ab coupled with horseradish peroxidase. […]

[1] = test system: TLR1/2, TLR3, TLR4/MD2, TLR5, TLR2/6, TLR7, TLR8, and TLR9; assay: HEK cells stably transfected with TLRs, IL-8 transcripts by QPCR; assay type: cell-based, human; conditions: 200 uM, 3 hours
Experimental: To test this hypothesis, human embryonic kidney (HEK) cells, which are normally unresponsive to TLR ligand stimulation, were stably transfected with TLR1/2, TLR3, TLR4/MD2, TLR5, TLR2/6, TLR7, TLR8, and TLR9. HEK 293 cells were cultured in Dulbecco's modified Eagle's medium supplemented with 10% fetal bovine serum. Cells were plated in 24-well tissue culture plates (1×10^5 cells/well) and maintained in the above medium for 24 h. The following day, cells were either left untreated or incubated with the indicated amount of TLR ligand. After the 3 hour treatment period, cells were harvested for total RNA using the Qiagen RNeasy kit per the manufacturer's protocol. The total RNA was converted to cDNA and QPCR was performed to determine the number of copies of IL-8.

p38 MAPK = assay: Western blot signaling in human macrophages: p38 MAPK; assay type: cell-based; conditions: human M-CSF-induced monocyte-derived macrophages
Experimental: as §1
Western blot analysis of macrophages was performed as previously described (Matsuyama et al., 2003). Briefly, prepared macrophages were starved in RPMI 1640 without FCS for 10 h. […] Proteins were analyzed on 12% polyacrylamide gels by SDS-PAGE and transferred electrophoretically to nitrocellulose membranes at 150 mA for 1 h in a semi-dry system. […]

C. albicans = assay: Candidiasis of oral mucosal surfaces and intestinal tract in mice (proposed); assay type: in vivo, Candida albicans; conditions: C. albicans in drinking water
Description: Dissemination to livers occurs and is 100% on days 5 to 15. The median kidney or liver CFU were 2 or 3 log10 CFU, respectively, on day 15; despite this, mortality was low through 21 days of infection.

human basophils = assay: IL-3 dependent IL-13 secretion by human basophils; assay type: cell-based; conditions: under the conditions tested
anti-ClfA IgG antibody = assay: Adjuvant effect in vaccination with S. aureus ClfA (serum ELISA); assay type: in vivo, CD-1 female mice
Experimental: To evaluate the capacity of c-di-GMP to increase antibody production in the mouse (adaptive immune response), the cyclic dinucleotide was used as adjuvant for vaccination with S. aureus ClfA recombinant protein (a surface adhesion protein of S. aureus binding fibrinogen), as previously done for ClfA alone without adjuvant (Brouillette et al., 2002). Two groups of eight CD-1 female mice were vaccinated intramuscularly with 100 μl of saline containing 25 μg of ClfA. For one of the groups, the solution injected also contained 200 nmol of c-di-GMP. A volume of 50 ul was then injected into both quadriceps. This procedure was repeated two weeks after, for a second injection. Twelve days later, i.e. 26 days after the initial injections, blood samples were taken and incubated at 35° C. for an hour to allow coagulation, and then centrifuged at 13,000 g for 10 min at 4° C. Sera were harvested and kept at −20° C. until tested. The institutional ethics committee on animal experimentation of the Faculté des sciences of Université de Sherbrooke approved these experiments and were carried out following the guidelines of the Canadian Council on Animal Care.
Enzyme-linked immunosorbant assays (ELISA) were used to determine the presence of IgG antibodies against the ClfA antigen in the mouse serum, as previously described (Brouillette et al., 2002). Polystyrene Maxisorp 96-well plates (Nalge-Nunc International) were coated for 2 h with 50 μl of recombinant ClfA (domaine A) protein at a concentration of 10 μg/ml in carbonate/bicarbonate buffer at pH 9.6. Following saturation of the wells with a solution of powdered milk in PBS (5% w/v), overnight at 4° C., four-fold dilutions of sera (1/1000 to 1/64000) were added and incubated for 2 h at 35° C. and then overnight at 4° C. Biotinylated anti-mouse IgG (1/1000) was added and incubated for 2 h at 35° C. After 1 h of incubation with streptavidin-HRP (Amersham Pharmacia Biotech) diluted 1/500, 100 μl of Sure Blue TMB Peroxidase Substrate (KPL) was added. The enzyme reaction was stopped by the addition of 50 μl of 1N HCl after 6 min of incubation. Between each step, three washes with PBS-Tween 0.05% were carried out. The optical density (OD) was read on a plate reader (Bio-Tek Instruments) at 450 nm.
ELISA assays were carried out as for the total IgG assay but the secondary antibody was either mouse anti-IgG1-HRP or mouse anti-IgG2a-HRP (BD Pharmingen) and four-fold dilutions of sera form 1/250 to 1/16000 were assayed. Quantitation of mouse antibodies was achieved as for the total IgG assay but the development of coloration was allowed for 10 min. […] For the statistical analysis of ELISA results, the O.D. data for mice vaccinated with the c-di-GMP molecule as adjuvant were matched up to the corresponding data (isotype and dilution) where mice were injected with saline instead of c-di-GMP. One way analysis of variance (ANOVA) was used with the Bonferroni post-hoc test to account for multiple comparisons (Graphpad InStat software, version 3.06).

[2] = serum dilution of 1/1000, FIG. 7B

**Q.** For Nc1nc(=O)c2ncn([C@@H]3OC4COP(=O)(O)O[C@H]5[C@@H](O)[C@H](n6cnc7c(=O)nc(N)[nH]c76)O[C@@H]5COP(=O)(O)OC4C3O)c2[nH]1 (some centres unmarked) [c-di-GMP, Bis(3′→5′)-cyclic diguanylic acid], which ERK phosphorylation (ERK; 10- and 100 uM, human macrophages, FIG. 13B) is on record?
**A.** activate

**Q.** What about the “time of peak ERK phosphorylation” value (ERK; absent at 20 min) of the same compound?
**A.** 5 min

**Q.** And the “magnitude of ERK phosphorylation relative to LPS” value (ERK; under the conditions tested)?
**A.** weaker

**Q.** What about the “stimulation of LPS-sensitive MD2/TLR4-HEK cell line” value [1] of the same compound?
**A.** failed to stimulate

**Q.** And the “activation of TLR expressing HEK cell lines (IL-8 transcripts)” value ([1]; FIG. 14)?
**A.** none of the TLR expressing cell lines were activated

**Q.** What about the “phosphorylation of p38 MAPK” value (p38 MAPK) of the same compound?
**A.** no phosphorylation

**Q.** What about the “mucosal infection and dissemination compared to untreated controls” value (C. albicans) of the same compound?
**A.** reduce mucosal infection

**Q.** What about the “effect on IL-13 induced by IL-3” value (human basophils) of the same compound?
**A.** essentially no inhibition

**Q.** And the “ELISA optical density, IgG1 and IgG2a isotypes” value (anti-ClfA IgG antibody; serum dilution 1/16000, c-di-GMP treated group)?
**A.** around 0.5

**Q.** What about the “ELISA optical density, total IgG” value (anti-ClfA IgG antibody; serum dilution 1/64000, c-di-GMP treated group) of the same compound?
**A.** around 0.5

**Q.** What about the “increase of IgG1 (optical density ratio c-di-GMP/saline)” value (anti-ClfA IgG antibody; [2]) of the same compound?
**A.** 3.6 times

**Q.** And the “increase of IgG2a (optical density ratio c-di-GMP/saline)” value (anti-ClfA IgG antibody; [2])?
**A.** 208.9 times

**Q.** And the “increase of total IgG (optical density ratio c-di-GMP/saline)” value (anti-ClfA IgG antibody; [2])?
**A.** 7.7 times

**Q.** And the “anti-ClfA IgG antibody titers compared with ClfA alone” value (anti-ClfA IgG antibody; two i.m. injections, 200 nmol c-di-GMP + 25 μg ClfA, serum day 26, P<0.001)?
**A.** significantly higher
